{"source": "patent US7615361B2", "about": "“Toxicity screening methods” (Ceetox, Inc., priority 2006, dated 2009)", "key": {"NRK cells": {"tested_on": "NRK cells", "experiment": "Predicted Ctox from Tox-Panel", "type": "cell-based, rat", "experimental": "Studies such as these indicate that a preferred concentration for setting Ctox is the highest concentration at which there is no observed effect on any of the indicators being measured in the cluster analysis, especially a 24-hour cluster analysis. […] It will be apparent that 24 hour assays are more time-effective, and consequently, the 24 hour NOEL/Ctox represents a preferred data point to select as Ctox in a CATS assay. It will also be apparent that, with further time studies, it may be possible to select an equally suitable Ctox at other CATS assay time points (e.g., between 24 and 72 hours, or less than 24 hours).\nIn certain embodiments, the predicting comprises performing concentration response analyses of measurements from at least three separate assays that are employed in the cluster analysis. For example, in the cell health cluster, such predicting will involve monitoring the concentration response effect of the compound on a first health indicator which monitors cellular replication, a second cell health indicator which monitors mitochondrial function, and a third cell health indicator which monitors membrane integrity. Of course, it is understood that fourth, fifth, sixth or more cell health indicators also may be employed. From these concentration response analyses, the highest concentration of the chemical compound at which a measurable toxic effect of the chemical compound is not observable, i.e. NOEL, is determined and the Ctox is identified as the concentration that correlates to the NOEL. In choosing the concentrations of the compound for analysis, one of skill in the art should devise a dose response regimen which is selected to provide an indication of cell health at concentrations of at least two concentration values higher than the Ctox concentration.\nThe third experiment was done to evaluate the specificity and selectivity of the test compound in another non-tumor cell that was derived from normal rat kidney tissue. In this experiment the test compound has no effect on cell number of acute cell death up to the 500 dilution after 6 and 24 hr of exposure (FIG. 76C and 77C). Significant effects were observed on mitochondrial markers at dilutions that dropped pH to 3.7. The bar graph in FIG. 82 summarizes these effects. […] In contrast the rat tumor cell line was sensitive to the test compound and cell death occurred at the 500 dilution and could not be attributed to low pH."}, "[1]": {"experiment": "Intracellular total glutathione (GSH)", "conditions": "human", "experimental": "(§1) Intracellular Glutathione (GSH) Levels: Intracellular glutathione levels were determined essentially as described by Griffith (1980) with modifications. At the end of the exposure period, the medium was removed from the cells and metaphosphoric acid (MPA) was added to each well. Plates were then shaken for 5 min at room temperature and stored at −20° C. until needed.\n(§2) The sample plates were thawed just prior to analysis and centrifuged at >2000×g for at least 2 min. Sample aliquots were removed and transferred to a clean 96-well plate along with appropriate standard curve controls. Sample pH was neutralized just prior to analysis and each well received an aliquot of sodium phosphate reaction buffer containing EDTA, DTNB, NADPH, and glutathione reductase. The plates were mixed for 15-30 min at room temperature and glutathione content was determined calorimetrically with a Packard Fusion or equivalent reader at 415 nm.\n(§3) Intracellular Glutathione (GSH) Levels: The assay is based on the concept that all GSH is oxidized to GSSG by DTNB reagent. Two molecules of GSH are required to make one molecule of GSSG. Total GSH was determined by reducing GSSG to 2GSH with glutathione reductase. A standard curve was prepared with oxidized glutathione (GSSG) over a range of concentrations. These concentrations are then converted to glutathione equivalents (GSX) essentially by multiplying the GSSG standard concentrations by 2. The amount of GSX expressed as pmoles/well was determined using the standard curve and regression analysis.\n(§4) The test compound consisted of two parts mixed in a constant ratio of 5:1. The final test mixture consisted of Test mix 1 and Test mix 2, which were received as frozen solutions. The test mixture was tested in a ratio of 5:1 COMP A in five different cell types which included the following: SK-MEL28, human hepatocytes, HUVEC, C32, and NHEM cells. Cells were seeded into 96-well plates and cultured in medium containing 10% bovine serum. Following an equilibration period of 48 hr, the cells were treated with the test compound mix at concentrations of COMP A (μg/mL)=(250:50), (125:25), (25:12.5), (12.5:2.5), (2.5:1.25), (1.25:0.25), and (0.25:0.05) for 24 hr (overnight) at 37° C. in 5% CO2. […] Following an equilibration period of 4 hr, the cells were treated with the test compound mix at concentrations of COMP A (μg/mL)=(250:50), (125:25), (25:12.5), (12.5:2.5), (2.5:1.25), (1.25:0.25), and (0.25:0.05) for 24 hr (overnight) at 37° C. in 5% CO2.\n(§5) Experimental Protocol: The test compounds were shipped on dry ice for testing. The compounds were stored frozen at −80° C. until needed. Dosing solutions were prepared in complete culture medium. SK-MEL28, human hepatocytes, HUVEC, C32, and NHEM cells were used as the test systems. Cells were seeded into 96-well plates and allowed to equilibrate for approximately 48 hr. Following the equilibration period the cells were exposed to the test compound mix at concentrations of COMP A (μg/mL)=(250:50), (125:25), (25:12.5), (12.5:2.5), (2.5:1.25), (1.25:0.25), and (0.25:0.05). […] Following the exposure period, the cells or their supernatant (culture medium) were analyzed for changes in cell proliferation, membrane leakage, mitochondrial function, oxidative stress, and apoptosis. The resultant exposure concentration response curves were graphed and analyzed for determining the concentration that produced a half maximal response or TC50."}, "SK-MEL28 cells": {"tested_on": "SK-MEL28 cells", "experiment": "Intracellular total glutathione (GSH)", "experimental": "as §1, §2, §3, §4, §5"}, "[2]": {"conditions": "SK-MEL28, 24 HR, COMP A (LOW) / controls #2"}, "[3]": {"conditions": "SK-MEL28, 72 HR, COMP A (LOW) / controls #2"}}}
{"smiles": "C=C(C)[C@H]1Cc2c(ccc3c2O[C@@H]2COc4cc(OC)c(OC)cc4[C@@H]2C3=O)O1", "note": "[ROTENONE, Rotenone]", "values": [{"measurement": "Predicted Ctox", "setting": "NRK cells; 6 HR", "result": 1, "unit": "µM"}, {"measurement": "Predicted Ctox", "setting": "NRK cells; 24 HR", "result": 1, "unit": "µM"}, {"measurement": "CC50 at 72 h", "setting": "[1]", "result": 0.1, "unit": "µM"}, {"measurement": "Percent Change in Total GSH", "setting": "SK-MEL28 cells; SK-MEL28, 24 HR", "result": 52.8, "unit": "%"}, {"measurement": "Percent Change in Total GSH", "setting": "SK-MEL28 cells; [2]", "result": 49.9, "unit": "%"}, {"measurement": "Percent Change in Total GSH", "setting": "SK-MEL28 cells; [3]", "result": 85.1, "unit": "%"}]}
{"smiles": "CC[C@@]1(O)C(=O)OCc2c1cc1n(c2=O)Cc2cc3ccccc3nc2-1", "note": "[CAMPTOTHECIN, Camptothecin]", "values": [{"measurement": "Predicted Ctox", "setting": "NRK cells; 6 HR", "result": 0.1, "unit": "µM"}, {"measurement": "Predicted Ctox", "setting": "NRK cells; 24 HR", "result": 0.1, "unit": "µM"}, {"measurement": "CC50 at 24 h", "setting": "[1]; SK-MEL28 cells", "result": 10, "unit": "µM"}, {"measurement": "CC50 at 72 h", "setting": "[1]; SK-MEL28 cells", "result": 0.1, "unit": "µM"}, {"measurement": "Percent Change in Total GSH", "setting": "SK-MEL28 cells; SK-MEL28, 24 HR", "result": "−46.0", "unit": "%"}, {"measurement": "Percent Change in Total GSH", "setting": "SK-MEL28 cells; [2]", "result": "−57.9", "unit": "%"}, {"measurement": "Percent Change in Total GSH", "setting": "SK-MEL28 cells; [3]", "result": "−88.8", "unit": "%"}]}
